# Reference: patent US7786141B2 (Vertex Pharmaceuticals Incorporated, priority 2004, dated 2010)
# Where two headings read alike, the source gives them in different places.
# Assays:
# M1 muscarinic receptor = biological target: T1, M1 muscarinic receptor (Homo sapiens, UniProt P11229); assay: Functional mobilization of intracellular calcium (FLIPR) in M1-CHO cells; type: cell-based
# T1 construct: expressed in transfected cells; host or cells: CHO (M1-CHO)
# T1 sequence (P11229 1-460): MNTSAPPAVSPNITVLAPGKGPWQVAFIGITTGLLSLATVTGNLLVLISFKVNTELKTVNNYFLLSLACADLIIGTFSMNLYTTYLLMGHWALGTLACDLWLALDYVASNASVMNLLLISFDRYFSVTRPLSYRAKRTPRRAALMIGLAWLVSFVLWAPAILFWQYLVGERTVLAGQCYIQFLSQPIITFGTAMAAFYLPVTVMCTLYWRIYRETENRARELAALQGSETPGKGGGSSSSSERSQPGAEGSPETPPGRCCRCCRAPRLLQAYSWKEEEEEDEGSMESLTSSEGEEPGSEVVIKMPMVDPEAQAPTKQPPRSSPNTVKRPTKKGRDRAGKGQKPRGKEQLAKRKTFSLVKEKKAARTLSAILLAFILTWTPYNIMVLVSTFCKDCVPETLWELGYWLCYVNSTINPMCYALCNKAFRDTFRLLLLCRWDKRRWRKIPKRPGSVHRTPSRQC
# Method: (§1) Functional Mobilization of Intracellular Calcium to Determine Muscarinic Receptor Activity:
# (§2) CHO cells expressing muscarinic receptors (M1 to M5) are grown as monolayers in tissue culture flasks at 37° C. in a humidified atmosphere containing 5% CO2 and passaged every 3-5 days. The growth media is Dulbecco's modified eagles medium (DMEM, Gibco Cat# 12430-054), containing 25 mM Hepes and supplemented with Fetal Bovine Serum (Hyclone, cat# SH30071.03), 0.1 mM of MEM non-essential amino acids (GIBCO, Cat# 11140-050), 1 mM MEM Sodium Pyruvate (GIBCO Cat# 11360-070) and 100 units/ml of Penicillin G and 100 μg/ml of Streptomycin (GIBCO Cat# 15140-122). The recombinant muscarinic receptor cell lines are grown under antibiotic pressure with media containing 25 μg/ml zeocin and 500 μg/ml G418 (M1-CHO), 4 μg/ml puromycin, 50 μg/ml zeocin and 2.5 μg/ml blasticidin (M2 and M4-CHO) or 50 μg/ml zeocin and 4 μg/ml puromycin (M3 and M5-CHO).
# (§3) Cells are harvested at 80-90% confluence using Versene (GIBCO Cat# 15040-066), collected by centrifugation and seeded 18-24 hrs prior to running the calcium assay at a density of 5,000 cells/well in back-walled, clear-bottomed 384-well plates (BD Biocoat, poly-D-lysine, Cat#356663). The day of the experiment, the cells are washed with a plate washer (Bioteck Instruments, ELX 405) using bath 1 buffer (140-mM NaCl, 4.5-mM KCl, 2-mM CaCl2, 1-mM MgCl2, 10-mM Hepes-Na, 10-mM Glucose, pH 7.4, with NaOH) containing 1 mM Probenecid. Next, the calcium dye Fluo-3 (25 μl/well of Fluo-3 AM at 4 μM, Molecular Probes F-1241, in Bath 1 buffer containing 1 mM Probenecid) is added to the 25 μl of Bath 1 remaining in each well after the plate wash and the dye is loaded at 37° C. in the tissue culture incubator for 60-90 min. The fluorescent dye is removed using the plate washer with Bath 1 containing 1 mM Probenecid, leaving 25 μl/well of this solution after the wash. Alternatively, cells can be loaded with the calcium indicator from Molecular Devices (Calcium 3 Assay Reagents, Cat # R7181) adding 5 μl of a 5× solution dye in Bath 1 containing 1 mM Probenecid (10 ml per dye flask cat# R7182 to generate a solution 20×) to 20 μl of the same buffer. After loading for 60 min, the experiment can be run without having to remove the dye.
# (§4) Compounds are prepared at a 2× fold concentration in a 96-well plate (round bottom, Costar Corning cat# 3656), by reconstituting the pre-spotted compounds in bath 1 containing 1 mM probenecid. The final concentration DMSO is 0.5%, and the amount of DMSO is normalized across the assay plate. To determine an agonist action of the compounds on muscarinic receptors, the reconstituted compounds are added (25 μl compound/well) to the cell assay plate (containing 25 μl/well) using the multi-channel robotic system of the FLIPR 3 Instrument (Molecular Devices, Sunnyvale, Calif.). To determine a functional inhibitory action of the compounds on muscarinic receptors, the reconstituted compounds are added (25 μl compound/well) to the assay plate and pre-incubated for 15 min prior to adding 25 μl of Carbachol at 3× the EC80 for each muscarinic subtype. Alternatively, the compounds can be co-applied simultaneously with the agonist. In both assay modes, the fluorescence is recorded for 60 sec (excitation wavelength is […] and emission wavelength 540 nm) using the FLIPR 3 instrument.
# (§5) The potency, efficacy and selectivity of the muscarinic compounds were evaluated by screening the compound activity across the whole family (M1 to M5 cells). Compounds were also screened for activity on other proteins such as other GPCRs and ion channels to determine selectivity on M4 receptors.
# M4 muscarinic receptor = biological target: T2, M4 muscarinic receptor (Homo sapiens, UniProt P08173); assay: Functional mobilization of intracellular calcium (FLIPR) in M4-CHO cells; type: cell-based
# T2 construct: expressed in transfected cells; host or cells: CHO (M4-CHO)
# T2 sequence (P08173 1-479): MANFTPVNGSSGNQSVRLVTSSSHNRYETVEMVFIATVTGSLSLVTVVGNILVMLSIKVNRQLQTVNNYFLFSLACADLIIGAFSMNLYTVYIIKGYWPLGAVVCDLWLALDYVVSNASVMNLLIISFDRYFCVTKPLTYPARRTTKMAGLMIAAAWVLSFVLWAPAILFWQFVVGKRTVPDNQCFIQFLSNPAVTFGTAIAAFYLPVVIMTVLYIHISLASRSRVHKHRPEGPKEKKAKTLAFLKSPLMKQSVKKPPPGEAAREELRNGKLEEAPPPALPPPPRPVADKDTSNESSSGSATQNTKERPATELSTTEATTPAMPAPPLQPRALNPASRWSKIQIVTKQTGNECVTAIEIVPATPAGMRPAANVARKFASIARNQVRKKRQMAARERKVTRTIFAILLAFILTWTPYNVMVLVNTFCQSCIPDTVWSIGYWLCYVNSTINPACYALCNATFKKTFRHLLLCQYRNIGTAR
# Method: as §1, §2, §3, §4, §5
# [1] = M1 receptor, calcium mobilization
# [2] = M1 receptor, calcium mobilization, read-out: M1 Efficacy
# [3] = M4 receptor, calcium mobilization
# [4] = M4 receptor, calcium mobilization, read-out: M4 Efficacy
# [5] = Table 4, 100% efficacy is the maximum response obtained with the Carbachol control
# [6] = Table 4, modulating M1 receptor
# [7] = Table 4, modulating M4 receptor
# [8] = M1-CHO cells, calcium mobilization (FLIPR)
# [9] = M1-CHO cells, calcium mobilization (FLIPR), read-out: M1 Efficacy
# [10] = M4-CHO cells, calcium mobilization (FLIPR)
# [11] = M4-CHO cells, calcium mobilization (FLIPR), read-out: M4 Efficacy
SMILES,Emax (M1 muscarinic receptor; [5]) [%],M1 Activity (M1 muscarinic receptor; [6]),Emax (M4 muscarinic receptor; [5]) [%],M4 Activity (M4 muscarinic receptor; [7]),other results
CCOC(=O)N1CCC(N2CCC3(CC2)CN(C(=O)c2ccc(C)cc2)c2ccc(F)cc23)CC1 [compound 330],–,–,–,–,M1 Activity (M1 muscarinic receptor; [1]): x (activity was measured to be greater than 1.0 μM); Emax (M1 muscarinic receptor; [2]): < 65%; M4 Activity (M4 muscarinic receptor; [3]): x (activity was measured to be greater than 1.0 μM); Emax (M4 muscarinic receptor; [4]): < 65%
CN(C)C(=O)N1CC2(CCN(C3CCN(c4ccccn4)CC3)CC2)c2cc(F)ccc21 [compound 720],25 to 100,xx (activity was measured to be between 2.0 μM and 5.0 μM),25 to 100,xxx (activity was measured to be less than 2.0 μM),–
CCOC(=O)N1CCC(N2CCC3(CC2)CN(C(=O)N2CCCCC2)c2ccc(F)cc23)CC1 [compound 598],25 to 100,xxx (activity was measured to be less than 2.0 μM),25 to 100,xxx (activity was measured to be less than 2.0 μM),–
CN(C)C(=O)N1CC2(CCN(C3CCN(C(=O)c4cccnc4)CC3)CC2)c2cc(F)ccc21 [compound 795],< 25,xx (activity was measured to be between 2.0 μM and 5.0 μM),< 25,x (activity was measured to be greater than 5.0 μM),–
O=C(N[C@H]1CCC2(CCN(CC3CC4C=CC3C4)CC2)c2ccccc21)C1CC1 (stereo partly shown) [compound 576],25 to 100,xxx (activity was measured to be less than 2.0 μM),25 to 100,xxx (activity was measured to be less than 2.0 μM),–
CCNC(=O)N1CC2(CCN(C3CC4CCC3C4)CC2)c2cc(C)ccc21 (stereo not shown) [compound 400],–,–,–,–,EC50 (M1 muscarinic receptor; [8]): > 1000 nM; Emax (M1 muscarinic receptor; [9]): < 65%; EC50 (M4 muscarinic receptor; [10]): > 1000 nM; Emax (M4 muscarinic receptor; [11]): < 65%
CC#CCOC(=O)N1CCC(N2CCC3(CC2)CN(CCOC)c2ccc(F)cc23)CC1 [compound 853],25 to 100,–,25 to 100,–,"M1 Activity (M1 muscarinic receptor; Table 4, M1 receptor, calcium mobilization (FLIPR)): xxx (activity was measured to be less than 2.0 μM); M4 Activity (M4 muscarinic receptor; Table 4, M4 receptor, calcium mobilization (FLIPR)): xxx (activity was measured to be less than 2.0 μM)"
CN(C)C(=O)N1CC2(CCN(C3CC4CCC(C3)N4C(=O)O[C@H]3CCOC3)CC2)c2cc(F)ccc21 (stereo partly shown) [compound 130],–,–,–,–,M1 Activity (M1 muscarinic receptor; [1]): xxx (activity was measured to be less than 0.1 μM); Emax (M1 muscarinic receptor; [2]): < 65%; M4 Activity (M4 muscarinic receptor; [3]): xx (activity was measured to be between 0.1 μM and 1.0 μM); Emax (M4 muscarinic receptor; [4]): < 65%
COCCN1CC2(CCN([C@@H]3C[C@H]4CCC3C4)CC2)c2cc(C)ccc21 [compound 737],25 to 100,xx (activity was measured to be between 2.0 μM and 5.0 μM),25 to 100,xxx (activity was measured to be less than 2.0 μM),–
COC(=O)N1CC[C@H](CN2CCC3(CC2)CN(C(C)=O)c2ccccc23)C1 [compound 680],25 to 100,xx (activity was measured to be between 2.0 μM and 5.0 μM),25 to 100,xxx (activity was measured to be less than 2.0 μM),–
CCOC(=O)N1CCC(N2CCC3(CC2)CN(C2CCCC2=O)c2ccc(F)cc23)CC1 (stereo not shown) [compound 756],25 to 100,xxx (activity was measured to be less than 2.0 μM),25 to 100,xxx (activity was measured to be less than 2.0 μM),–
CC(C)OC(=O)N1C2CCC1CC(N1CCC3(CCc4ccccc43)CC1)C2 (stereo not shown) [compound 285],–,–,–,–,M1 Activity (M1 muscarinic receptor; [1]): xx (activity was measured to be between 0.1 μM and 1.0 μM); Emax (M1 muscarinic receptor; [2]): < 65%; M4 Activity (M4 muscarinic receptor; [3]): x (activity was measured to be greater than 1.0 μM); Emax (M4 muscarinic receptor; [4]): < 65%
CC(=O)N1CC2(CCN(C3CCN(c4cncc(-c5ccc(F)cc5)n4)CC3)CC2)c2ccccc21 [compound 556],25 to 100,x (activity was measured to be greater than 5.0 μM),< 25,x (activity was measured to be greater than 5.0 μM),–
CC(=O)NC1CCC2(CCN(CCC3CCCN(C(=O)OC(C)C)C3)CC2)c2ccccc21 (stereo not shown) [compound 731],< 25,xxx (activity was measured to be less than 2.0 μM),< 25,x (activity was measured to be greater than 5.0 μM),–
CC(=O)N1CC2(CCN(C3CCCC(C(F)(F)F)C3)CC2)c2cc(F)ccc21 (stereo not shown) [compound 425],–,–,–,–,EC50 (M1 muscarinic receptor; [8]): > 1000 nM; Emax (M1 muscarinic receptor; [9]): < 65%; EC50 (M4 muscarinic receptor; [10]): > 1000 nM; Emax (M4 muscarinic receptor; [11]): < 65%
CN(C)C(=O)N1CC2(CCN(C3CCN(C(=O)C4CC4)CC3)CC2)c2cc(F)ccc21 [compound 701],25 to 100,xxx (activity was measured to be less than 2.0 μM),25 to 100,xxx (activity was measured to be less than 2.0 μM),–
CC(=O)N[C@H]1CCC2(CCN(CCC3CCN(C(=O)OC(C)(C)C)CC3)CC2)c2ccccc21 [compound 575],< 25,x (activity was measured to be greater than 5.0 μM),< 25,x (activity was measured to be greater than 5.0 μM),–
CC#CCOC(=O)N1CC[C@H](CN2CCC3(CC2)CN(C(=O)N(C)C)c2ccc(F)cc23)C1 [compound 761],25 to 100,xxx (activity was measured to be less than 2.0 μM),25 to 100,xxx (activity was measured to be less than 2.0 μM),–
Clc1ccc2c(c1)C1(CCN(C3CCC4CCC3C4)CC1)CN2 (stereo not shown) [compound 348],–,–,–,–,M1 Activity (M1 muscarinic receptor; [1]): xxx (activity was measured to be less than 0.1 μM); Emax (M1 muscarinic receptor; [2]): > 85%; M4 Activity (M4 muscarinic receptor; [3]): xx (activity was measured to be between 0.1 μM and 1.0 μM); Emax (M4 muscarinic receptor; [4]): > 85%
